Key:
Format in all cases: physicochemical
[1] = Example 25: release of geraniol from geranyl-O-β-D-2′-acetamido-2′-deoxy-3′-keto-glucopyranoside vs geranyl-β-2′-acetamido-2′-deoxy-glucopyranoside, 0.1 M deuterated phosphate buffer or D2O, 33% D6-DMSO, 32° C.; settings: for stability / geraniol release (in words): 32° C.
From the text: In this example the rate of release of geraniol from N-((2R,3S,5R,6R)-2-(((E)-3,7-dimethylocta-2,6-dien-1-yl)oxy)-5-hydroxy-6-(hydroxymethyl)-4-oxotetrahydro-2H-pyran-3-yl)acetamide (geranyl-O-β-D-2′-acetamido-2′-deoxy-3′-keto-glucopyranoside) vs. N-((2R,3R,4R,5S,6R)-2-(((E)-3,7-dimethylocta-2,6-dien-1-yl)oxy)-4,5-dihydroxy-6-(hydroxymethyl)tetrahydro-2H-pyran-3-yl)acetamide (geranyl-R-2′-acetamido-2′-deoxy-glucopyranoside) in D2O containing 33% D6-DMSO or in 0.1 M deuterated phosphate buffer solutions of differing pH containing 33% D6-DMSO or in D2O was determined.
(§1) 0.1 M of pH 5.8 and 7.4 stock buffered solutions of sodium dihydrogen phosphate and disodium hydrogen phosphate were prepared in deuterated water (D2O).
A stock solution of 25 mg of geranyl-O-β-D-2′-acetamido-2′-deoxy-3′-keto-glucopyranoside in 1.0 mL of D6-DMSO were prepared.
To four parallel reaction vials, where indicated in the reaction table below, was added 0.20 mL of the glycoside substrate solutions in D6-DMSO and 0.40 mL of low or high pH 0.1M phosphate buffer in D2O and the mixtures incubated by shaking at 32° C. After times indicated in table below, the mixtures where analysed by ^1H-NMR in a 400 MHz instrument.

[2] = Example 23: release of methanol from methyl-O-α-D-3′-ketomannopyranoside vs methyl-O-α-D-mannopyranoside, 0.1 M deuterated phosphate buffer or D2O, 15% D6-DMSO, 32° C.
Method: In this example the rate of release of methanol from (2R,3R,5R,6S)-3,5-dihydroxy-2-(hydroxymethyl)-6-methoxytetrahydro-4H-pyran-4-one (methyl-O-α-D-3′-ketomannopyranoside) vs. (2R,3S,4S,5S,6S)-2-(hydroxymethyl)-6-methoxytetrahydro-2H-pyran-3,4,5-triol (methyl-O-α-D-mannopyranoside) in D2O containing 15% D6-DMSO or in 0.1 M deuterated phosphate buffer solutions of differing pH containing 15% D6-DMSO or in D2O was determined.
as §1
A stock solution of 25 mg of methyl-O-α-D-3′-ketoglucomannoside in 1.0 mL of D6-DMSO were prepared.
(§2) After times indicated in table below, the mixtures where analysed by ^1H-NMR in a 400 MHz instrument.

[3] = Example 24: release of geraniol from geranyl-3′-keto-2′-deoxyglucopyranoside vs 2′-deoxyglucopyranoside, 0.1 M deuterated phosphate buffer or D2O, 50% D6-DMSO, 32° C.
Method: In this example the rate of release of geraniol from (2R,3R)-6-(((E)-3,7-dimethylocta-2,6-dien-1-yl)oxy)-3-hydroxy-2-(hydroxymethyl)tetrahydro-4H-pyran-4-one in (geranyl-3′-keto-2′-deoxyglucopyranoside) 0.1 M deuterated phosphate buffer solutions of differing pH containing 50% D6-DMSO was determined.
as §1
A stock solution of 15 mg of geraniol-O-β-D-3′-keto-2′-deoxyglucopyranoside in 1.5 mL of D6-DMSO were prepared.
as §2

[4] = Example 22: competitive release of para-nitrophenol from an approximately equimolar solution of 4-nitrophenyl-O-β-D- and -O-α-D-3′-ketoglucopyranoside, 32° C., 1H NMR integrals
From the text: In this example the competitive rate of release of para-nitrophenol from an approximately equimolar solution of (2R,5S,6S)-3,5-dihydroxy-2-(hydroxymethyl)-6-(4-nitrophenoxy)tetrahydro-4H-pyran-4-one (4-nitrophenyl-O-β-D-3′-ketoglucopyranoside) and (2R,5S,6S)-3,5-dihydroxy-2-(hydroxymethyl)-6-(4-nitrophenoxy)tetrahydro-4H-pyran-4-one (4-nitrophenyl-O-α-D-3′-ketoglucopyranoside) in D2O containing 1.5% D6-DMSO or in 0.1 M deuterated phosphate buffer, pH 5.8 containing 1.5% D6-DMSO or in D2O was determined.
A solution containing approximately 2 mg each of 4-nitrophenyl-O-β-D-3′-ketoglucopyranoside and 4-nitrophenyl-O-α-D-3′-ketoglucopyranoside was prepared in 1 mL of D2O containing 3.3% v/v D6-DMSO. To two 0.375 mL portions of the resultant solution was added either D2O (0.5 mL) or 0.1M sodium phosphate buffer, pH 5.8 (0.5 mL) to given reactions 1 and 2 respectively. The resultant mixtures were analysed by ^1H NMR directly following preparation then incubated at 32° C./80 rpm and periodically analysed by ^1H NMR at recorded time points.
The change in the ratio between the integrals of the anomeric protons of each ketoglucoside and between the were sum of the anomeric protons and the anomeric protons of each ketoglucoside with time are shown in Table IX: […]

[5] = Reaction 2, 0.1M sodium phosphate buffer, pH 5.8, 0 h
[6] = Reaction 2, 0.1M sodium phosphate buffer, pH 5.8, 20 h
[7] = Reaction 2, 0.1M sodium phosphate buffer, pH 5.8, 45 h

Structure (SMILES): CC(=O)N[C@H]1[C@H](OC/C=C(\C)CCC=C(C)C)O[C@H](CO)[C@@H](O)[C@@H]1O [N-((2R,3R,4R,5S,6R)-2-(((E)-3,7-dimethylocta-2,6-dien-1-yl)oxy)-4,5-dihydroxy-6-(hydroxymethyl)tetrahydro-2H-pyran-3-yl)acetamide, reference compound]
- stability / geraniol release (in words) [1]: remains stable at pH 7.4
- % Conversion by 1H-NMR ([1]; pH 7.4, 0 h): 0%
- % Conversion by 1H-NMR ([1]; pH 7.4, 1.5 h): 0%
- % Conversion by 1H-NMR ([1]; pH 7.4, 22 h): 0%
- % Conversion by 1H-NMR ([1]; pH 7.4, 48 h): 0%
- % Conversion by 1H-NMR ([1]; pH 7.4, 216 h): 0%

Structure (SMILES): CO[C@H]1O[C@H](CO)[C@@H](O)C(=O)[C@@H]1O [methyl-O-α-D-3′-ketomannopyranoside, (2R,3R,5R,6S)-3,5-dihydroxy-2-(hydroxy-methyl)-6-methoxytetrahydro-4H-pyran-4-one]
- stability / methanol release (in words) ([2]; 4.2 mg/mL): generates methanol at both pH 5.8 and pH 7.4
- % Conversion by 1H-NMR ([2]; D2O, 0 h): 0%
- % Conversion by 1H-NMR ([2]; D2O, 22 h): 0%
- % Conversion by 1H-NMR ([2]; pH 5.8, 0 h): 0%
- % Conversion by 1H-NMR ([2]; pH 5.8, 22 h): 71%
- % Conversion by 1H-NMR ([2]; pH 5.8, 96 h): 78%
- % Conversion by 1H-NMR ([2]; pH 5.8, 192 h): 78%
- % Conversion by 1H-NMR ([2]; pH 7.4, 0 h): 0%
- % Conversion by 1H-NMR ([2]; pH 7.4, 22 h): 54%
- % Conversion by 1H-NMR ([2]; pH 7.4, 96 h): 74%
- % Conversion by 1H-NMR ([2]; pH 7.4, 192 h): 88%

Structure (SMILES): CO[C@H]1O[C@H](CO)[C@@H](O)[C@H](O)[C@@H]1O [methyl-O-α-D-mannopyranoside, (2R,3S,4S,5S,6S)-2-(hydroxymethyl)-6-methoxytetrahydro-2H-pyran-3,4,5-triol]
- stability / methanol release (in words) ([2]; 32° C.): remains stable at pH 7.4 and in water
- % Conversion by 1H-NMR ([2]; D2O, 0 h): 0%
- % Conversion by 1H-NMR ([2]; D2O, 22 h): 0%
- % Conversion by 1H-NMR ([2]; D2O, 96 h): 0%
- % Conversion by 1H-NMR ([2]; pH 7.4, 0 h): 0%
- % Conversion by 1H-NMR ([2]; pH 7.4, 22 h): 0%
- % Conversion by 1H-NMR ([2]; pH 7.4, 96 h): 0%
- % Conversion by 1H-NMR ([2]; pH 7.4, 192 h): 0%

Structure (SMILES): CC(=O)N[C@@H]1C(=O)[C@H](O)[C@@H](CO)O[C@H]1OC/C=C(\C)CCC=C(C)C [N-((2R,3S,5R,6R)-2-(((E)-3,7-dimethylocta-2,6-dien-1-yl)oxy)-5-hydroxy-6-(hydroxymethyl)-4-oxotetrahydro-2H-pyran-3-yl)acetamide]
- stability / geraniol release (in words) [1]: generates geraniol at both pH 5.8 and pH 7.4
- % Conversion by 1H-NMR ([1]; D2O, 0 h): 0%
- % Conversion by 1H-NMR ([1]; D2O, 1.5 h): 0%
- % Conversion by 1H-NMR ([1]; D2O, 22 h): 0%
- % Conversion by 1H-NMR ([1]; D2O, 48 h): 0%
- % Conversion by 1H-NMR ([1]; D2O, 216 h): 0%
- % Conversion by 1H-NMR ([1]; pH 5.8, 0 h): 0%
- % Conversion by 1H-NMR ([1]; pH 5.8, 1.5 h): 5%
- % Conversion by 1H-NMR ([1]; pH 5.8, 22 h): 25%
- % Conversion by 1H-NMR ([1]; pH 5.8, 48 h): 32%
- % Conversion by 1H-NMR ([1]; pH 5.8, 216 h): 39%
- % Conversion by 1H-NMR ([1]; pH 7.4, 0 h): 0%
- % Conversion by 1H-NMR ([1]; pH 7.4, 1.5 h): 5%
- % Conversion by 1H-NMR ([1]; pH 7.4, 22 h): 88%
- % Conversion by 1H-NMR ([1]; pH 7.4, 48 h): 100%
- % Conversion by 1H-NMR ([1]; pH 7.4, 216 h): 100%
- rate of geraniol release compared with other ketoglycosides (in words) ([1]; similar conditions): greater than observed from geranyl-3′-keto-2′-deoxyglucopyranoside (Example 25) or geranyl-O-β-D-3′-ketoglucopyranoside (Example 17) under similar conditions

Structure (SMILES): CC(C)=CCC/C(C)=C/CO[C@H]1CC(=O)[C@H](O)[C@@H](CO)O1 [geranyl-3′-keto-2′-deoxyglucopyranoside, (2R,3R)-6-(((E)-3,7-dimethylocta-2,6-dien-1-yl)oxy)-3-hydroxy-2-(hydroxymethyl)tetrahydro-4H-pyran-4-one]
- stability / geraniol release (in words) ([3]; 32° C.): generates geraniol at both pH 5.8 and pH 7.4
- % Conversion by 1H-NMR ([3]; D2O, 0 h): 0%
- % Conversion by 1H-NMR ([3]; D2O, 1 h): 0%
- % Conversion by 1H-NMR ([3]; D2O, 72 h): <5%
- % Conversion by 1H-NMR ([3]; D2O, 144 h): <5%
- % Conversion by 1H-NMR ([3]; pH 5.8, 0 h): 0%
- % Conversion by 1H-NMR ([3]; pH 5.8, 1 h): 5%
- % Conversion by 1H-NMR ([3]; pH 5.8, 72 h): 32%
- % Conversion by 1H-NMR ([3]; pH 5.8, 144 h): 38%
- % Conversion by 1H-NMR ([3]; pH 5.8, 288 h): 47%
- % Conversion by 1H-NMR ([3]; pH 7.4, 0 h): 0%
- % Conversion by 1H-NMR ([3]; pH 7.4, 1 h): 6%
- % Conversion by 1H-NMR ([3]; pH 7.4, 72 h): 57%
- % Conversion by 1H-NMR ([3]; pH 7.4, 144 h): 88%
- % Conversion by 1H-NMR ([3]; pH 7.4, 288 h): 100%
- rate of geraniol release compared with other ketoglycosides (in words) ([3]; similar conditions): greater than observed from geranyl-O-β-D-3′-ketoglucopyranoside under similar conditions

Structure (SMILES): O=C1[C@@H](O)[C@@H](Oc2ccc([N+](=O)[O-])cc2)O[C@H](CO)[C@H]1O
- ratio of the sum of aromatic/α-ketoglucoside proton integrals ([4]; Reaction 1, D2O, 0 h): 6.9
- ratio of α-/β-ketoglucoside proton integrals ([4]; Reaction 1, D2O, 0 h): 1.0
- ratio of the sum of aromatic/α-ketoglucoside proton integrals ([4]; Reaction 1, D2O, 20 h): 7.1
- ratio of α-/β-ketoglucoside proton integrals ([4]; Reaction 1, D2O, 20 h): 1.2
- ratio of the sum of aromatic/α-ketoglucoside proton integrals ([4]; Reaction 1, D2O, 45 h): 6.8
- ratio of α-/β-ketoglucoside proton integrals ([4]; Reaction 1, D2O, 45 h): 1.3
- ratio of α-/β-ketoglucoside proton integrals ([4]; Reaction 1, D2O, 72 h): 1.3
- ratio of the sum of aromatic/α-ketoglucoside proton integrals ([4]; Reaction 1, D2O, 143 h): 6.2
- ratio of the sum of aromatic/α-ketoglucoside proton integrals [4, 5]: 5.7
- ratio of α-/β-ketoglucoside proton integrals [4, 5]: 1.2
- ratio of the sum of aromatic/α-ketoglucoside proton integrals [4, 6]: 9.3
- ratio of α-/β-ketoglucoside proton integrals [4, 6]: 0.8
- ratio of the sum of aromatic/α-ketoglucoside proton integrals [4, 7]: 14.2
- ratio of α-/β-ketoglucoside proton integrals [4, 7]: 0.7
- ratio of α-/β-ketoglucoside proton integrals ([4]; Reaction 2, 0.1M sodium phosphate buffer, pH 5.8, 72 h): 0.35
- ratio of the sum of aromatic/α-ketoglucoside proton integrals ([4]; Reaction 2, 0.1M sodium phosphate buffer, pH 5.8, 143 h): 30.2

Structure (SMILES): CC(C)=CCC/C(C)=C/CO[C@H]1C[C@@H](O)[C@H](O)[C@@H](CO)O1 [geranyl-O-2′-deoxyglucopyranoside, geranyl 2′-deoxy-β-D-glucopyranoside, reference compound]
- stability / geraniol release (in words) [3]: remains stable at pH 7.4
- % Conversion by 1H-NMR ([3]; pH 7.4, 0 h): 0%
- % Conversion by 1H-NMR ([3]; pH 7.4, 1 h): 0%
- % Conversion by 1H-NMR ([3]; pH 7.4, 72 h): 0%
- % Conversion by 1H-NMR ([3]; pH 7.4, 144 h): 0%
- % Conversion by 1H-NMR ([3]; pH 7.4, 288 h): 0%
